Test results as given in patent publication US10112937B2, “P2X7 modulators and methods of use” (Janssen Pharmaceutica NV, priority 2013, dated 2018).
Where a name gives a salt, the structure may show the parent alone.

Target: human P2X7 (Homo sapiens (Human), UniProt Q99572)
Assay: P2X7 antagonism in human PBMCs (IL-1β release after LPS + Bz-ATP, ELISA)
Assay type: cell-based
Conditions: for PBMC 10 μM (% control): test compound 10 μM; for PBMC 1 μM (% control): test compound 1 μM

human P2X7, sequence (Q99572 whole entry): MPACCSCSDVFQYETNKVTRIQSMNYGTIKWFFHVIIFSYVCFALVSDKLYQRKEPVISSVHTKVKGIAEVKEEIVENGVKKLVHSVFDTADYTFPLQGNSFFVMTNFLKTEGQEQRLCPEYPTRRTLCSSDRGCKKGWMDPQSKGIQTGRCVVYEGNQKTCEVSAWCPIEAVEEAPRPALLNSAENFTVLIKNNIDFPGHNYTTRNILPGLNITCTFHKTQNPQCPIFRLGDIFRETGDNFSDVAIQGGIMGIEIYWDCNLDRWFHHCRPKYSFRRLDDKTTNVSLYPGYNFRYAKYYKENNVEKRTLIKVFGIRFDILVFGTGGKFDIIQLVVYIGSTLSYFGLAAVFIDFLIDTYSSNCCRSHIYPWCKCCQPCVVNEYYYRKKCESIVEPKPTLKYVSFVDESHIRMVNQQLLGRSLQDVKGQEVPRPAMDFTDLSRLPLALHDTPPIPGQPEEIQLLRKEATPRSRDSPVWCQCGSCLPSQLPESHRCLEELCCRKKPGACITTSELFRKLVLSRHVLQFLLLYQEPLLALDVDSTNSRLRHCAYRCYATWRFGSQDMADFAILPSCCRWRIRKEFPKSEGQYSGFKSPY

SMILES	PBMC 10 μM (% control) (human PBMCs)	PBMC 1 μM (% control) (human PBMCs)	also measured
CC1c2nnn(-c3ncccc3F)c2C=CN1C(=O)c1cccc(C(F)(F)F)c1Cl (stereo not drawn) [Example 82, 5-{[2-Chloro-3-(trifluoromethyl)phenyl]carbonyl}-1-(3-fluoropyridin-2-yl)-4-methyl-4,5-dihydro-1H-[1,2,3]triazolo[4,5-c]pyridine]	7.9	–	–
CC1c2nnn(-c3ccc(F)cc3)c2CCN1C(=O)c1cccc(C(F)(F)F)c1Cl (stereo not drawn) [Example 83, 5-{[2-Chloro-3-(trifluoromethyl)phenyl]carbonyl}-1-(4-fluorophenyl)-4-methyl-4,5,6,7-tetrahydro-1H-[1,2,3]triazolo[4,5-c]pyridine]	4.5	–	–
CC1c2nnn(-c3cc[nH]n3)c2C=CN1C(=O)c1cccc(C(F)(F)F)c1Cl (stereo not drawn) [Example 86, 5-{[2-Chloro-3-(trifluoromethyl)phenyl]carbonyl}-4-methyl-1-(1H-pyrazol-3-yl)-4,5-dihydro-1H-[1,2,3]triazolo[4,5-c]pyridine]	13.0	–	–
O=C(c1cccc(C(F)(F)F)c1Cl)N1CCc2c(nnn2-c2cnccn2)C1 [Example 91, 5-{[2-Chloro-3-(trifluoromethyl)phenyl]carbonyl}-1-pyrazin-2-yl-4,5,6,7-tetrahydro-1H-[1,2,3]triazolo[4,5-c]pyridine]	–	6.1	–
O=C(c1cccc(C(F)(F)F)c1Cl)N1CCc2c(-c3ccccn3)n[nH]c2C1 [Example 93, 6-{[2-Chloro-3-(trifluoromethyl)phenyl]carbonyl}-3-pyridin-2-yl-4,5,6,7-tetrahydro-2H-pyrazolo[3,4-c]pyridine-TFA salt]	–	9.0	–
O=C(c1cccc(C(F)(F)F)c1Cl)N1CCc2c(-c3cccnc3)n[nH]c2C1 [Example 96, 6-{[2-Chloro-3-(trifluoromethyl)phenyl]carbonyl}-3-pyridin-3-yl-4,5,6,7-tetrahydro-2H-pyrazolo[3,4-c]pyridine]	3.6	–	–
O=C(c1cccc(C(F)(F)F)c1Cl)N1CCc2c(-c3ccccc3)n[nH]c2C1 [Example 99, (2-Chloro-3-(trifluoromethyl)phenyl)(3-phenyl-4,5-dihydro-1H-pyrazolo[3,4-c]pyridin-6(7H)-yl)methanone]	–	7.0	–
Cn1nc(-c2ccccc2)c2c1CN(C(=O)c1cccc(Cl)c1Cl)CC2.Cn1nc2c(c1-c1ccccc1)CCN(C(=O)c1cccc(Cl)c1Cl)C2 [Example 101, 6-[(2,3-Dichlorophenyl)carbonyl]-1-methyl-3-phenyl-4,5,6,7-tetrahydro-1H-pyrazolo[3,4-c]pyridine-6-[(2,3-dichlorophenyl)carbonyl]-2-methyl-3-phenyl-4,5,6,7-tetrahydro-2H-pyrazolo[3,4-c]pyridine (1:1)]	–	7.6	PBMC 1 μM (% control) (LPS 30 ng/ml + 0.5 mM Bz-ATP): 7.6 % control
Cn1nc2c(c1-c1ccccc1)CCN(C(=O)c1cccc(Cl)c1Cl)C2 [Example 102, 6-[(2,3-Dichlorophenyl)carbonyl]-2-methyl-3-phenyl-4,5,6,7-tetrahydro-2H-pyrazolo[3,4-c]pyridine]	–	18.0	–
Cn1nc(-c2ccccc2)c2c1CN(C(=O)c1cccc(Cl)c1Cl)CC2 [Example 103, 6-[(2,3-Dichlorophenyl)carbonyl]-1-methyl-3-phenyl-4,5,6,7-tetrahydro-1H-pyrazolo[3,4-c]pyridine]	–	56.0	–
O=C(c1ccnc(Cl)c1Cl)N1CCc2c(-c3ccccc3)n[nH]c2C1 [Example 104, 6-[(2,3-Dichloropyridin-4-yl)carbonyl]-3-phenyl-4,5,6,7-tetrahydro-1H-pyrazolo[3,4-c]pyridine]	–	8.9	–
Cn1nc2c(c1-c1ccc(F)cc1)CCN(C(=O)c1cccc(C(F)(F)F)c1Cl)C2 [Example 105, 6-{[2-Chloro-3-(trifluoromethyl)phenyl]carbonyl}-3-(4-fluorophenyl)-2-methyl-4,5,6,7-tetrahydro-2H-pyrazolo[3,4-c]pyridine]	–	51.0	–
Cn1nc(-c2cccnc2)c2c1CN(C(=O)c1cccc(C(F)(F)F)c1Cl)CC2 [Example 108, 6-{[2-Chloro-3-(trifluoromethyl)phenyl]carbonyl}-1-methyl-3-pyridin-3-yl-4,5,6,7-tetrahydro-1H-pyrazolo[3,4-c]pyridine]	–	1.1	–
CC1Cc2c(nnn2-c2ccccn2)CN1C(=O)c1cccc(Cl)c1Cl (stereo not drawn) [Example 120, 5-[(2,3-Dichlorophenyl)carbonyl]-6-methyl-1-pyridin-2-yl-4,5,6,7-tetrahydro-1H-[1,2,3]triazolo[4,5-c]pyridine]	−3.8	–	–
O=C(c1cccc(C(F)(F)F)c1F)N1CCc2c(nnn2-c2ccccn2)C1 [Example 123, (2-Fluoro-3-(trifluoromethyl)phenyl)(1-(pyridin-2-yl)-6,7-dihydro-1H-[1,2,3]triazolo[4,5-c]pyridin-5(4H)-yl)methanone]	–	22.0	–

Further lines, with some results ahead:

PBMC 10 μM (% control) (human PBMCs)	PBMC 1 μM (% control) (human PBMCs)	SMILES	also measured
8.5	–	CC1c2nnn(-c3ncccc3F)c2CCN1C(=O)c1cccc(C(F)(F)F)c1Cl (stereo not drawn) [Example 84, 5-{[2-Chloro-3-(trifluoromethyl)phenyl]carbonyl}-1-(3-fluoropyridin-2-yl)-4-methyl-4,5,6,7-tetrahydro-1H-[1,2,3]triazolo[4,5-c]pyridine]	–
–	−1.5	O=C(c1cccc(C(F)(F)F)c1Cl)N1C=Cc2c(nnn2-c2cnccn2)C1 [Example 89, 5-{[2-Chloro-3-(trifluoromethyl)phenyl]carbonyl}-1-pyrazin-2-yl-4,5-dihydro-1H-[1,2,3]triazolo[4,5-c]pyridine]	–
–	2.7	Cn1nc2c(c1-c1ccccn1)CCN(C(=O)c1cccc(C(F)(F)F)c1Cl)C2 [Example 92, 6-{[2-Chloro-3-(trifluoromethyl)phenyl]carbonyl}-2-methyl-3-pyridin-2-yl-4,5,6,7-tetrahydro-2H-pyrazolo[3,4-c]pyridine]	–
–	9.2	O=C(c1cccc(Cl)c1Cl)N1CCc2c(-c3ccccc3)n[nH]c2C1 [Example 100, 6-[(2,3-Dichlorophenyl)carbonyl]-3-phenyl-4,5,6,7-tetrahydro-1H-pyrazolo[3,4-c]pyridine]	–
−3.3	–	O=C(c1cccc(Cl)c1Cl)N1CCc2c(-c3ccncc3)n[nH]c2C1 [Example 115, 6-[(2,3-Dichlorophenyl)carbonyl]-3-pyridin-4-yl-4,5,6,7-tetrahydro-2H-pyrazolo[3,4-c]pyridine]	–
4.3	–	O=C(c1ccc(F)cc1Cl)N1CCc2c(nnn2-c2ccccn2)C1 [Example 117, (2-Chloro-4-fluorophenyl)(1-(pyridin-2-yl)-6,7-dihydro-1H-[1,2,3]triazolo[4,5-c]pyridin-5(4H)-yl)methanone]	–
−0.2	–	CC1Cc2c(nnn2-c2ccccn2)CN1C(=O)c1ccc(F)c(Cl)c1Cl (stereo not drawn) [Example 121, 5-[(2,3-Dichloro-4-fluorophenyl)carbonyl]-6-methyl-1-pyridin-2-yl-4,5,6,7-tetrahydro-1H-[1,2,3]triazolo[4,5-c]pyridine]	–
0.2	–	CC1Cc2c(nnn2-c2ncccc2F)CN1C(=O)c1cccc(C(F)(F)F)c1Cl (stereo not drawn) [Example 122, 5-{[2-Chloro-3-(trifluoromethyl)phenyl]carbonyl}-1-(3-fluoropyridin-2-yl)-6-methyl-4,5,6,7-tetrahydro-1H-[1,2,3]triazolo[4,5-c]pyridine]	–
